Test system: respiratory epithelial cells

## IL-13: human IL-13 (Peprotech, Inc.) added to the medium at 50 ng/mL to stimulate respiratory epithelial cells
Lot 2, Day 3, AI
  KCNMA1 (47575_g_at) expression change: −3.5
  KCNMA1 (53796_at) expression change: −4.8
  KIAA0878 (48793_at) expression change: −2.1
  KLF7 34216_at expression change: −2.6
  KLF7 (42769_at) expression change: −5.7
  KRT15 37582_at expression change: −2.7
  LOC51297 (49616_at) expression change: −13.4
  LOC51297 (55440_at) expression change: −10.8
  LOC51297 (55442_g_at) expression change: −14.4
  LOC129642 (42065_at) expression change: −2.8
  LOC129642 (58288_at) expression change: −3
  MGC12536 46924_at expression change: −4.2
  MGC13102 (54791_at) expression change: −2.1
  MGC14128 55924_at expression change: −3.3
  MGC14128 (51669_r_at) expression change: −3
  MGC14597 (46030_at) expression change: −8.5
  N52554 47432_at expression change: −2.3
  N71183 52473_at expression change: −2.2
  PR01489 57777_at expression change: −3.3
  PSCA (63958_at) expression change: −5.5
  RAC2 32737_at expression change: −17.4
  RGC32 (57044_s_at) expression change: −2.2
  SCNN1B 39682_at expression change: −12.3
  SCYB14 (65823_at) expression change: −2.1
  SERPINA3 (75248_at) expression change: −35.8
  SLC11A3 (45826_at) expression change: −2.5
  SLC34A2 (48048_at) expression change: −4.3
  SPON2 52576_s_at expression change: −3.1
  STEAP 40297_at expression change: −2.6
  TCF8 33439_at expression change: −2.7
  TGFBI (68339_at) expression change: −2.8
  TNFAIP2 (74633_at) expression change: −2.2
  TNRC3 41246_at expression change: −2
  TPM1 36790_at expression change: −5.4
  TPM1 36791_g_at expression change: −3.5
  TPM1 36792_at expression change: −5
  UCP2 37591_at expression change: −2.3
  UGB 39220_at expression change: −17.8
  VEGFC 1934_s_at expression change: −2.5
  VIM 34091_s_at expression change: −3.1
  W72331 49486 at expression change: −7.8
Lot 2, Day 3, AI method
  AA149682 (51925_at) expression fold change: 2.2 fold
  AA167714 (54897_at) expression fold change: 2.9 fold
  AA420479 (52539_at) expression fold change: 2.2 fold
  AA541787 (52622_at) expression fold change: 2.2 fold
  AA582926 (52307_at) expression fold change: 2.2 fold
  AA604375 (44127_at) expression fold change: 2.1 fold
  ADAM8 (40712_at) expression, fold change upon IL-13 stimulation: 2.7 fold
  ADAM28 (35479_at) expression, fold change upon IL-13 stimulation: 3.5 fold
  AI310524 (47087_at) expression fold change: 2 fold
  AI565105 (54886_at) expression fold change: 2.2 fold
  AI659927 (54033_at) expression fold change: 4.6 fold
  AI718385 (53061_at) expression fold change: 2.2 fold
  AI809925 (53010_at) expression fold change: 2.2 fold
  AI989346 (52327_s_at) expression fold change: 2.2 fold
  AKAP2 (35985_at) expression, fold change upon IL-13 stimulation: 2.5 fold
  AKAP2 (48035_at) expression fold change: 3 fold
  ALOX15 (34636_at) expression, fold change upon IL-13 stimulation: 112.2 fold
  ARL7 (57151_at) expression fold change: 6.1 fold
  AW019985 (48826_s_at) expression fold change: 9.8 fold
  BAL (52167_at) expression fold change: 2.7 fold
  BRCA1 (626_s_at) expression fold change: 19.3 fold
  BST2 (39061_at) expression, fold change upon IL-13 stimulation: 5.8 fold
  C21orf11 (58957_at) expression fold change: 7.1 fold
  CCND3 (1794_at) expression fold change upon IL-13 stimulation: 2.3 fold
  CCND3 (1795_g_at) expression fold change upon IL-13 stimulation: 2.4 fold
  CD47 (37890_at) expression fold change: 2.4 fold
  CDH6 (1620_at) expression fold change upon IL-13 stimulation: 5.6 fold
  CDH6 (57421_at) expression fold change: 2.9 fold
  CDH26 (46916_at) expression fold change: 10.5 fold
  CH25H (32363_at) expression, fold change upon IL-13 stimulation: 14.9 fold
  CLDN1 (46260_at) expression fold change: 2.4 fold
  CLDN4 (35276_at) expression, fold change upon IL-13 stimulation: 2.2 fold
  CTSC (133_at) expression, fold change upon IL-13 stimulation: 3.9 fold
  CXCL16 (44095_at) expression fold change: 2.3 fold
  DBCCR1 (40292_at) expression, fold change upon IL-13 stimulation: 7.9 fold
  DD96 (31610_at) expression, fold change upon IL-13 stimulation: 5.3 fold
  DKFZP564O0823 (41402_at) expression, fold change upon IL-13 stimulation: 5.4 fold
  DKFZP566J091 (57197_at) expression fold change: 45.3 fold
  DKFZp564N1116 (37784_at) expression, fold change upon IL-13 stimulation: 5 fold
  DNAJA1 (276_at) expression fold change upon IL-13 stimulation: 2.2 fold
  DPP4 (34823_at) expression fold change upon IL-13 stimulation: 7.6 fold
  DPYD (38220_at) expression fold change upon IL-13 stimulation: 3.9 fold
  EMILIN-2 (51628_at) expression fold change: 2.9 fold
  FABP4 (38430_at) expression, fold change upon IL-13 stimulation: 2.5 fold
  FBP1 (36495_at) expression fold change upon IL-13 stimulation: 4.4 fold
  FETUB (32620_at) expression fold change: 37.6 fold
  FETUB (33101_g_at) expression fold change: 24.7 fold
  FLJ10261 (43366_at) expression fold change: 11.2 fold
  FLJ10261 (43963_at) expression fold change: 14.4 fold
  FLJ22693 (53777_at) expression fold change: 2.2 fold
  FUT10 (908_at) expression fold change upon IL-13 stimulation: 8.9 fold
  GADD45G (39154_at) expression fold change upon IL-13 stimulation: 5.3 fold
  GBP5 (52615_at) expression fold change: 4.5 fold
  GS3686 (36927_at) expression, fold change upon IL-13 stimulation: 6.4 fold
  HAS3 (54604_at) expression fold change: 2 fold
  HDAC9 (37483_at) expression fold change upon IL-13 stimulation: 3.7 fold
  HS3ST1 (41556_s_at) expression fold change upon IL-13 stimulation: 5.8 fold
  HSPA5 (47634_at) expression fold change: 3.7 fold
  ICAMt (32640_at) expression fold change upon IL-13 stimulation: 2.8 fold
  IFI27 (425_at) expression, fold change upon IL-13 stimulation: 2.5 fold
  IFI27 (48864_at) expression fold change: 2.1 fold
  IFI35 (464_s_at) expression, fold change upon IL-13 stimulation: 4.5 fold
  IFI44 (37641_at) expression, fold change upon IL-13 stimulation: 3.8 fold
  IFIT1 (915_at) expression, fold change upon IL-13 stimulation: 9 fold
  IFIT1 (32814_at) expression, fold change upon IL-13 stimulation: 4 fold

Source: US20050208496A1, “Methods of testing for bronchial asthma or chronic obstructive pulmonary disease” (Genox Research, Inc., priority 2002, published 2005)
